Tests used:
[1] = Chronic (20 weeks) oral administration in aged mice: body weight, food intake, organ mass, plasma citrulline; assay type: in vivo, C57BL/6JRj mice; details: 1 mg/kg in the food
Description: (§1) Figure 2 Chronic oral administration of ALT-007 enhances physical fitness in aged mice. (A) Schematic representation of the study time-line. Compounds were mixed in the food, ALT-007 at 1 mg/kg and DMSO at equivalent volume. At week 0: young mice were 2 months old, and the old mice were 18 months old. (B) Body weight curve over the course of the study (20 weeks). (C) Food intake curve throughout the study. (D–G) Organ mass at sacrifice (week 20), normalized to body weight. (H) Oral glucose tolerance test (oGTT) performed at week 17. (I) Best performance during hanging time normalized to BW at week 7. (J) Best performance during grip strength on the 4 limbs normalized to BW at week 8. (K) Rotarod’s best latency time at week 9. (L) VO2Max performed at week 11. (M) Uphill maximum running time performed at week 13. N = 9 per group. (N) Difference of CK level after—before 90 min downhill running performed at week 15. N = 6 in young, N = 8 in DMSO and N = 7 in ALT-007-treated groups. (O–Q) Measurement of kCAL/h at night (O) and at day (P) and movement recording in x, y, z (Q) during 24 h in CLAMS at week 19. N = 12 per group unless specified otherwise. Quantitative data are expressed as median with IQR. *P < 0.05, **P < 0.01, ***P < 0.001, ****P < 0.0001. ANOVA test was used for multiple comparison, and the Mann–Whitney U test when comparing 2 groups. All tests were 2 sided.
Young (2 month-old) and aged (18 month-old) male C57BL/6JRj mice were purchased from Janvier Laboratories. Housing conditions involved maintaining two to five animals per cage under a 12 h light/dark cycle, with continuous access to food and water. Animals were fed a standard chow diet (Safe 150) with the following composition: 56.9% nitrogen-free extract, of which 41.0% was starch and 3.4% was sugars, 18.0% crude protein, 4.8% crude fat, 4.2% crude ash, 4.1% crude fiber and 12.0% moisture. Young (2 month-old) and old (18 month-old) mice were monitored for 20 weeks. Mice were administered either DMSO as a control or ALT-007. ALT-007 was dissolved in DMSO or DMSO alone were mixed in the food (1 mg/kg for ALT-007 or equivalent volume of DMSO for controls). Body weight and food intake measurements were recorded weekly until sacrifice.
Prior to sacrifice, mice were fasted for 4 h in the morning. Animals were sacrificed between 1:30 and 4 p.m. Mice were anesthetized with isoflurane, followed by a complete blood draw from the vena cava and perfusion with cold phosphate-buffered saline. Immediately thereafter, various tissues including liver, kidney, spleen, heart, brain, gastrocnemius muscle and tibialis anterior muscle were harvested, weighted and promptly flash-frozen in liquid nitrogen.
1.1. Supplementary Figure 1
(A) Citrulline levels in the plasma of mice treated with ALT-007 at 1 mg/kg or vehicle […]

[2] = system: Aged C57BL/6J mice; experiment: Hanging test; assay type: in vivo, C57BL/6JRj mice; details: 1 mg/kg in the food, week 7, normalized to BW
Description: Mice were allowed to acclimate to the testing room for 30 min before the experiment. Each mouse was positioned on a wire grid, gripping it with all four limbs. The grid was then inverted, causing the mouse to hang, and the duration it could maintain this position was recorded. The maximum trial length was set at 2 min and 30 s (150 s). The latency to fall was measured five times for each mouse, with 10 min intervals between trials.

[3] = system: Aged C57BL/6J mice; experiment: Rotarod test; assay type: in vivo, C57BL/6JRj mice; details: 1 mg/kg in the food, week 9
Description: The rotarod test assesses muscle strength, coordination, and endurance.[32] Mice were allowed to acclimate in the room for 30 min. […] Each mouse underwent three trials per day for three consecutive days. The latency at which the mouse either reached passive rotation or fell from the rotor was recorded. The results presented here focus on the latency of the best trial conducted on the second day.

[4] = system: Aged C57BL/6J mice; experiment: VO2max test; assay type: in vivo, C57BL/6JRj mice; details: 1 mg/kg in the food, week 11
Description: VO2max in mice was measured with a calorimetric treadmill (Columbus Instruments) with an incremental speed protocol as previously described.[33]

[5] = system: Aged C57BL/6J mice; experiment: CK level after 90 min downhill running; assay type: in vivo, C57BL/6JRj mice; details: 1 mg/kg in the food, week 15, trend for improvement
Description: as §1

[6] = system: gastrocnemius muscles of aged mice; experiment: RNAseq / gene set enrichment analysis of gastrocnemius muscle of aged mice; assay type: in vivo, C57BL/6JRj mice
Description: Figure 3 ALT-007 preserves muscle mass and rewires skeletal muscle gene expression during aging. (A) Lean mass measured by echoMRI after 11 weeks of treatment (ALT-007:1 mg/kg; DMSO: equivalent volume, for 20 weeks). (B) Gastrocnemius and (C) Tibialis anterior muscle weight after 20 weeks of treatment. N = 12 per group. (D) Total ceramide levels measured in the gastrocnemius muscle. (E) Volcano plot of mitochondrial, proteostasis, amino acids, biosynthetic processes, and neuronal-related gene sets highlighted. (F,G) Gene set enrichment analysis (GSEA) of (F) pathways involved in protein folding and degradation and (G) neurogenesis pathways in the skeletal muscle of mice treated with ALT-007 (N = 5 in DMSO and N = 4 in ALT-007-treated groups). Adjusted P values in GSEA comparison are indicated as follows: *adjusted P < 0.05; **adjusted P < 0.01; ***adjusted P < 0.001.
RNA seq analysis was performed as previously described. Changes in cell composition were assessed by gene set enrichment analysis (GSEA) with the clusterProfiler package (Yu G. et al., 2012) and the MsigDB v7.5.1 mouse cell type signature set, accessed through the msigdbr package was performed. Only the gene sets relevant to skeletal muscle and neuronal cell types were retained.
1.2. Supplementary Figure 2
Gene set enrichment analysis using the MsigDB mouse cell type signature sets. Only the gene sets relevant to skeletal muscle and neuronal cell types were retained.
GSEA was performed with the cluserProfiler package and gene sets were accessed through the MsigDBr package.
(1 picture or pasted object on this page, not shown here)

[7] = set-up: method as in PMID 29669694; details: compared to Myriocin; cited from earlier work
[8] = system: C2C12 myoblasts carrying the APPswe mutation and human myoblasts from aged donors and patients with IBM; set-up: method as in PMID 37196064; details: cited from earlier work
[9] = gastrocnemius of aged mice, ALT-007 vs DMSO

COc1cc(C(=O)N2CC[C@H](NC(=O)c3ccccc3OC(F)(F)F)c3c2cnn3C(C)C)cnc1OC [ALT-007]
body weight ([1]; 20 weeks): stable body weight
food intake ([1]; 20 weeks): absence of changes in food intake
gastrointestinal (GI) toxicity by plasma citrulline levels ([1]; 20 weeks, vs untreated mice): no gastrointestinal (GI) toxicity
tissue weights relative to control ([1]; at sacrifice week 20, normalized to body weight): absence of changes
maximum hanging time [2]: increased compared to aged control mice
coordination measured by the rotarod test [3]: improved
VO2max [4]: significantly higher
creatine kinase in the blood after a downhill running test [5]: nor did it reduce
neurogenesis pathways in the muscle, GSEA [6, 9]: remarkable upregulation of neurogenesis pathways
proteostasis pathways (protein folding and degradation), GSEA [6, 9]: enrichment of several proteostasis pathways
ribosomal and translation pathways, GSEA [6, 9]: significantly attenuated
neuronal cells in the skeletal muscles (GSEA, MsigDB mouse cell type signature sets) ([6]; old treated vs old untreated mice): increases neuronal cells
aqueous solubility [7]: improved
protein aggregates [8]: potent effect in reducing protein aggregates
